Each structure is given as a SMILES string. Read-outs that look alike come from different tables or passages of the source.

Series [1] is described as follows: Pharmacokinetics in male SD rats (cassette dosing, IV and PO), plasma level by LC/MS/MS. The format is in vivo. Particulars: male SD rat; for bioavailability: dose adjusted PO AUC (5 mg/kg) to IV AUC (1 mg/kg), read-out: F % (oral bioavailability). How it is done: Male SD rats were fasted overnight. Compounds of the invention were dissolved in dimethyl acetamide at 10 times the final concentration, then Solutol HS 15 (BASF) was added to a final concentration of 10%. Finally, 80% saline was added and vortexed to achieve a clear solution. For the IV dosing three animals were injected via the foot dorsal vein with 1 mg/kg compound. For the PO dosing 5 mg/kg of compound was delivered by oral gavage. Blood was collected via the tail vein into K2EDTA tubes at 5 minutes, 15 minutes, 30 minutes, 1 hour, 2 hours, 4 hours, 8 hours and 24 hours after dosing. The blood was centrifuged at 2000 g for 5 minutes at 4° C. to obtain plasma. The plasma was extracted with acetonitrile and the level of compound was analyzed by LC/MS/MS. The level of compound in plasma was calculated from a standard curve in rat plasma. The IV clearance (L/h/kg) and area under the curve (h*ng/mL) were calculated using WinNonLin software. The dose adjusted area under the curve for the IV and oral dosing were used to calculate the oral bioavailability.
Pharmacokinetic properties were assessed in a rat cassette dosing experiment. The IV clearance (IV Clr.) is in units of L/hr/kg. The oral maximum plasma concentration (PO Cmax) is in units of ng/ml. The oral plasma half-life (PO T½) is in units of hours. The oral area under the curve (PO AUC) is in units of hours*ng/ml. The fraction absorbed by the oral route (F %) is a percentage of the oral area under the curve to the IV area under the curve, dose adjusted.

For series [2], the target named is T1, HDAC2 (Homo sapiens, UniProt Q92769).
T1 construct: purchased BPS Biosciences
The series can be described thus: HDAC enzyme assay, HDAC2 (fluorescence, tripeptide substrate/trypsin). The format is biochemical. Particulars: 0.2 ng/ml enzyme, 10 μM substrate, 10 min preincubation. How it is done:
(§1) Compounds for testing were diluted in […] to 50 fold the final concentration and a ten-point three-fold dilution series was made. The compounds were diluted in assay buffer (50 mM HEPES, pH 7.4, 100 mM KCl, 0.001% Tween-20, 0.05% BSA, 20 μM TCEP) to 6-fold their final concentration. The HDAC enzymes (purchased from BPS Biosciences) were diluted to 1.5-fold their final concentration in assay buffer. The tripeptide substrate and trypsin at 0.05 μM final concentration were diluted in assay buffer at 6-fold their final concentration. The final enzyme concentrations used in these assays were 3.3 ng/ml (HDAC1), 0.2 ng/ml (HDAC2) and 0.08 ng/ml (HDAC3). The final substrate concentrations used were 16 μM (HDAC1), 10 μM (HDAC2) and 17 μM (HDAC3).
(§2) Five μl of compounds and 20 μl of enzyme were added to wells of a black, opaque 384 well plate in duplicate. Enzyme and compound were incubated together at room temperature for 10 minutes. Five μl of substrate was added to each well, the plate was shaken for 60 seconds and placed into a Victor 2 microtiter plate reader. The development of fluorescence was monitored for 60 min and the linear rate of the reaction was calculated. The IC50 was determined using Graph Pad Prism by a four parameter curve fit.

Series [3] addresses T2, HDAC3 (Homo sapiens, UniProt O15379).
T2 construct: purchased BPS Biosciences
Kind of series: HDAC enzyme assay, HDAC3 (fluorescence, tripeptide substrate/trypsin). The format is biochemical. The note with it: 0.08 ng/ml enzyme, 17 μM substrate, 10 min preincubation. How it is done:
as §1, §2

In series [4] the target is T3, HDAC1 (Homo sapiens, UniProt Q13547).
T3 construct: purchased BPS Biosciences
The series can be described thus: HDAC enzyme assay, HDAC1 (fluorescence, tripeptide substrate/trypsin). The format is biochemical. The note with it: 3.3 ng/ml enzyme, 16 μM substrate, 10 min preincubation. How it is done: as §1, §2

The mark [5] stands for this setting: PO 5 mg/kg oral gavage, read-out: PO AUC.
The mark [6] stands for this setting: PO 5 mg/kg oral gavage, read-out: PO t1/2.

T3 sequence (Q13547 whole entry): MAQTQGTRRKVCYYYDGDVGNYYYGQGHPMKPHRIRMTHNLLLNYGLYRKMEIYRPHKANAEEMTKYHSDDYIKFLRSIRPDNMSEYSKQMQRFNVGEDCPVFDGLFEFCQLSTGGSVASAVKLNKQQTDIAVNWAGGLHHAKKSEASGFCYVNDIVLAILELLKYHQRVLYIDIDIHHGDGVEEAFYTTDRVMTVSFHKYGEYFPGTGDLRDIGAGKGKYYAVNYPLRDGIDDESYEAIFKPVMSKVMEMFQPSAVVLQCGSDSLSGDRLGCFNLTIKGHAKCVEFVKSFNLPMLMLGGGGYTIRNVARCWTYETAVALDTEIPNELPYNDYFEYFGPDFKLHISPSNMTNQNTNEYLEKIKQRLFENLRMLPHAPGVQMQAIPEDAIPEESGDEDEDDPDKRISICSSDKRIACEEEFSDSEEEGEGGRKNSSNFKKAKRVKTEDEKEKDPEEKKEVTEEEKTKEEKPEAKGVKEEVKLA
T2 sequence (O15379 whole entry): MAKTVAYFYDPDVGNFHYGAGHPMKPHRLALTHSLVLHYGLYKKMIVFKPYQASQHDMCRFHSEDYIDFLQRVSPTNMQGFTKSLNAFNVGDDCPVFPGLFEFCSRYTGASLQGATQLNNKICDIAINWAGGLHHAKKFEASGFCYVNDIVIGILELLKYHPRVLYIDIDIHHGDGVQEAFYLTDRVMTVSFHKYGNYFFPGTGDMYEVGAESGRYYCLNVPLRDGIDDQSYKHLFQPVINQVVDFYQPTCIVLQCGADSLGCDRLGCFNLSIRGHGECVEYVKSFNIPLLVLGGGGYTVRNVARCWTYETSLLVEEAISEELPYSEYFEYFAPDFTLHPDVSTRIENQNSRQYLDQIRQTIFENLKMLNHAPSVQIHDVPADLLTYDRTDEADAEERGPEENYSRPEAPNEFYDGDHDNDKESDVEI
T2 sequence (Q9Y618 395-489 partner limits assumed): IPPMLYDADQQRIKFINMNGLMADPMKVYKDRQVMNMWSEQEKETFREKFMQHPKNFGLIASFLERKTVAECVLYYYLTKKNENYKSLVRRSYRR
T1 sequence (Q92769 whole entry): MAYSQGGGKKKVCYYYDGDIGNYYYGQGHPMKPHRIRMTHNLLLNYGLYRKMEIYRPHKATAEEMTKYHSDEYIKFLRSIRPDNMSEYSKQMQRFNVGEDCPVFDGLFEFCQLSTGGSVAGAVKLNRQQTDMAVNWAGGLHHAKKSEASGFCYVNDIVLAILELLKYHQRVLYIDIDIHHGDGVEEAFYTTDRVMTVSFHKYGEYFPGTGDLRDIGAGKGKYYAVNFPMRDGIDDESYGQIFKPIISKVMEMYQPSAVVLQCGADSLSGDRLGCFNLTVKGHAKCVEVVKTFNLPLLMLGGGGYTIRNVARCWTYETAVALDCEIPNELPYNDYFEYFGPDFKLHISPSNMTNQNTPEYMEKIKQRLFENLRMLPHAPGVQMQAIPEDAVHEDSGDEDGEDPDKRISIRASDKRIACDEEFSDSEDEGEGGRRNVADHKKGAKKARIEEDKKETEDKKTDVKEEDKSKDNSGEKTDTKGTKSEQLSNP

One may read the AUC as concentration integrated over time. In general, Cmax refers to the maximum level reached in the sampled fluid or tissue. In general, IC50 refers to the concentration that inhibits the measured activity by half. A high value points to a need for much substance. `Nc1ccc(-c2cccs2)cc1NC(=O)c1ccc2c(c1)ncn2CCN1CCOCC1` [Compound 021]: the IV clearance in series [1] (IV 1 mg/kg) fell in the range of 1.67 to 16.7 mL/min/kg. The AUC was 3700 to 3800 ng·h/mL in series [1] (IV 1 mg/kg, read-out: IV AUC) and 21400 ng·h/mL in series [1] (setting [5]). Moreover, the half-life in series [1] (IV 1 mg/kg, read-out: IV t1/2) was 1 to 5 h; in series [1] (setting [6]) it was 1 to 5 h. The same compound came in with a Cmax in series [1] (PO 5 mg/kg oral gavage) of 5250 to 5300 ng/mL. Also, the bioavailability in series [1] lay within 110 to 120%. Besides, the IC50 in series [2] lay within 15 to 20 nM; in series [3], 430 to 440 nM; in series [4] it was 5 to 10 nM.

With `Nc1ccc(-c2cccs2)cc1NC(=O)c1ccc2c(c1)CC(=O)N2` [Compound 004], the IV clearance in series [1] (IV 1 mg/kg) fell in the range of 0.167 to 8.33 mL/min/kg. Further, the area under the curve (AUC) in series [1] (IV 1 mg/kg, read-out: IV AUC) is 10600 to 10800 ng·h/mL; in series [1] (setting [5]) it was 61200 to 61400 ng·h/mL. Also, the half-life in series [1] (IV 1 mg/kg, read-out: IV t1/2) fell in the range of 15 to 20 h; in series [1] (setting [6]) it was 10 to 15 h. The Cmax in series [1] (PO 5 mg/kg oral gavage) is 3500 to 3550 ng/mL. Also, in series [1], the bioavailability was 110 to 115%. Besides, the IC50 in series [2] was 25 to 30 nM; in series [3], 530 to 540 nM; in series [4], 5 to 10 nM.

Compound `Nc1ccc(-c2cccs2)cc1NC(=O)c1ccc2c(c1)CC(=O)N2CC1CC1` [Compound 011] showed an IV clearance in series [1] (IV 1 mg/kg) of 1.67 to 16.7 mL/min/kg. The AUC is 2000 to 2100 ng·h/mL in series [1] (IV 1 mg/kg, read-out: IV AUC) and 8000 to 8100 ng·h/mL in series [1] (setting [5]). Besides, the half-life in series [1] (IV 1 mg/kg, read-out: IV t1/2) was 5 to 10 h; in series [1] (setting [6]), 5 to 10 h. The Cmax in series [1] (PO 5 mg/kg oral gavage) lay in the range of 700 to 750 ng/mL. The bioavailability in series [1] fell in the range of 80 to 90%. In addition, the figures for the IC50 in series [2], in series [3] and in series [4] were 35 to 40 nM, 490 to 500 nM and 10 to 15 nM, respectively.

The compound `Nc1ccc(-c2cccs2)cc1NC(=O)c1ccc2[nH]c(C3CC3)nc2c1` [Compound 009] came in with an IV clearance in series [1] (IV 1 mg/kg) of 0.167 to 8.33 mL/min/kg. In addition, the area under the curve (AUC) is 10800 ng·h/mL in series [1] (IV 1 mg/kg, read-out: IV AUC) and 65200 to 65400 ng·h/mL in series [1] (setting [5]). Further, the half-life in series [1] (IV 1 mg/kg, read-out: IV t1/2) fell in the range of 15 to 20 h; in series [1] (setting [6]) it was 10 to 15 h. Further, the Cmax in series [1] (PO 5 mg/kg oral gavage) was in the range of 4150 to 4200 ng/mL. Moreover, the bioavailability in series [1] fell in the range of 115 to 125%. For the same compound, the IC50 fell in the range of 40 to 45 nM in series [2], 470 to 480 nM in series [3] and 10 to 15 nM in series [4].

Take `Nc1ccc(-c2ccccc2)cc1NC(=O)c1ccc2c(c1)CC(=O)N2CC1CC1` [Compound 002]: the IV clearance in series [1] (IV 1 mg/kg) was in the range of 0.167 to 8.33 mL/min/kg. For the same compound, the AUC in series [1] (IV 1 mg/kg, read-out: IV AUC) is 6500 to 6600 ng·h/mL; in series [1] (setting [5]) it was 22400 ng·h/mL. Moreover, the half-life in series [1] (IV 1 mg/kg, read-out: IV t1/2) is 1 to 5 h; in series [1] (setting [6]), 5 to 10 h. The Cmax in series [1] (PO 5 mg/kg oral gavage) was 2450 to 2500 ng/mL. Further, the bioavailability in series [1] lay in the range of 65 to 75%. Besides, the IC50 in series [2] was 45 to 50 nM; in series [3], 925 to 935 nM; in series [4], 20 to 25 nM.
